Broadly, the cell viability is a per cent measure of how many cells are alive, often set against a control. Read a low cell viability as a greater loss of cells.

Holding throughout (type): cell-based, human
Data set [1] has as its system HOb cells. Briefly: Alkaline phosphatase (ALP) assay in HOb cells. The settings on record: compounds 100 μM, 72 h. As for the experimental part:
HOb cells were seeded in 96-well plates. Twenty-four hours after plating, the old medium was discarded and the cells were treated with tested extracts (100 μg/ml) in Osteoblast Differentiation Medium for 72 h. ALP activity was assessed using the p-nitrophenyl phosphate disodium substrate. Data are shown as mean±SD (n=3). *P<0.05 and **P<0.01 as compared with control (n=3).
HOb cells were seeded in 96-well plates. Twenty-four hours after plating, the old medium was discarded and the cells were treated with tested compounds (100 μM) in Osteoblast Differentiation Medium for 72 h. ALP activity was assessed using the p-nitrophenyl phosphate disodium substrate. Data are shown as mean±SD (n=3). *P<0.05 and **P<0.01 as compared with control (n=3).
(§1) Human osteoblasts (HOb) were primary cells derived from a person from a normal femoral bone and obtained from Cell Applications (San Diego, Calif., USA). HOb cells were grown in Osteoblast Growth Medium and maintained at 37° C. in 5% CO2 humidified atmosphere. The medium was changed every other day. To maintain exponential growth, the cells were subcultured every 7 days. HOb cells were used for cell viability, differentiation, and mineralization assays.
The alkaline phosphatase (ALP) activities of U. crinita extract and its constituents were measured with p-nitrophenyl phosphate as the substrate. HOb cells were seeded in 96-well plates at a density of 4×10^3 cells per well. Twenty-four hours after plating, the old medium was discarded and the cells were treated with tested extracts or compounds in Osteoblast Differentiation Medium. After 72 hours incubation, the medium was discarded and the cells rinsed twice with cold PBS, and cells were lysed with lysis buffer (PBS containing 0.1% Triton X-100). The cellular protein concentration in supernatant was determined after incubation with BCA (bicinchoninic acid) protein reagent for 1 hour at 37° C. The reaction was stopped by adding 1M NaOH, and absorbance measured at 560 nm. Furthermore, the ALP activity in supernatant was assayed by incubation for 1 hour at 37° C. in 0.1 M NaHCO3—Na2CO3 buffer, pH 10, containing 0.1% Triton X-100, 2 mM MgSO4, and 6 mM p-nitrophenyl phosphate. The reaction was stopped by adding 1M NaOH and absorbance was measured at 405 nm. Each value was normalized to the protein concentration.

The subject of data set [2] is HOb cells. In words: Mineralized matrix formation assay (Alizarin Red-S) in HOb cells. The following applies: for formation of mineralized bone nodules: compounds 100 μM, 12 days. Here is the method:
(§2) HOb cells were plated in 24-well plates. Three days after plating, the old medium was discarded and the cells were treated with tested extracts (100 μg/ml) in mineralizing media (Osteoblast Differentiation Medium containing ascorbic acid (50 μg/ml) and β-glycerophosphate (10 mM) for 12 days. At the end of experiment, cultures were fixed in 75% ethanol, and mineralized nodule formation was assessed by Alizarin Red-S staining. The bound staining was eluted with a solution of 10% cetylpyridinium chloride and quantified using a microtiter plate reader. Data are shown as mean±SD (n=3). *P<0.05 and **P<0.01 as compared with control (n=3).
as §2, with “tested compounds” for “tested extracts”, “(100 μM)” for “(100 μg/ml)”, “Differentiation Medium)” for “Differentiation Medium”
as §1
The mineralization activities of U. crinita extract and its constituents were measured by Alizarin Red-S staining of calcium. HOb cells were seeded in 24-well plates at a density of 7×10^4 cells per well. Three days after plating, the old medium was discarded and the cells were treated with tested extracts or compounds in mineralizing media (Osteoblast Differentiation Medium) containing ascorbic acid (50 μg/ml) and β-glycerophosphate (10 mM) for 12 days. At the end of experiment, cultures were fixed in 75% ethanol, and calcium deposits were stained for 15 minutes at room temperature with Alizarin Red-S solution (40 mM, pH 4.2). The bound staining was eluted with a solution of 10% (w/v) cetylpyridinium chloride in 10 mM sodium phosphate (pH 7.0) and quantified using a ELISA reader at 550 nm.

For data set [3], the system named is HOb cells. In words: Cell viability (MTT) assay in HOb cells. The settings on record: 100 μM, 72 hours. Here is the method:
HOb cells were seeded in 96-well plates. Twenty-four hours after plating, the old medium was discarded and the cells were treated with tested compounds (100 μM) in Osteoblast Differentiation Medium for 72 h. Cell viability was assessed using the MTT assay. Data are shown as mean±SD (n=3). *P<0.05 and **P<0.01 as compared with control (n=3).
Human osteoblasts (HOb) were primary cells derived from a person from a normal femoral bone and obtained from Cell Applications (San Diego, Calif., USA). HOb cells were grown in Osteoblast Growth Medium and maintained at 37° C. in 5% CO2 humidified atmosphere. The medium was changed every other day. To maintain exponential growth, the cells were subcultured every 7 days. […]
The cell viability of U. crinita extract and its constituents were determined using the MTT assay as described elsewhere (Scudiero et al., 1988). […] The absorbance at 600 nm was recorded using an ELISA reader. […]

Each structure is given as a SMILES string.

For `O=C1c2c(O)cc(O)cc2OCC1c1ccc(O)cc1O` (stereo not shown) [Compound 1, dalbergioidin], the ALP activity in the data set with HOb cells [1] was 114.10±4.41%. Moreover, in the data set with HOb cells [2], the “formation of mineralized bone nodules” value amounted to 107.09±2.80%.

In turn, `N[C@@H](Cc1c[nH]c2ccccc12)C(=O)O` [Compound 5, tryptophan] registered a cell viability in the data set with HOb cells [3] of 80.43±1.11%.

As for `Nc1ncnc2c1ncn2[C@@H]1O[C@H](CO)[C@@H](O)[C@H]1O` [Compound 7, adenosine], the ALP activity in the data set with HOb cells [1] came out at 108.70±4.14%. Besides, in the data set with HOb cells [2], the “formation of mineralized bone nodules” value came to 125.21±3.75%.

Turning to `O=c1cc(-c2ccc(O)cc2)oc2cc(O)c(C3OCC(O)C(O)C3OC3OCC(O)(CO)C3O)c(O)c12` (stereo not shown) [Compound 3], the ALP activity in the data set with HOb cells [1] is on record as 109.68±2.20%. Moreover, in the data set with HOb cells [2], the “formation of mineralized bone nodules” value was 150.10±0.80%. For the same compound, the “mineralization activity, ranking in words” value in the data set with HOb cells [2] (isolated compounds, 100 μM) is “most potent mineralization activity”.

In the case of `CC1=CC(=O)CC(C)(C)[C@H]1CC[C@@H](C)O[C@@H]1O[C@H](CO)[C@@H](O)[C@H](O)[C@H]1O` [Compound 9, byzantionoside B], the ALP activity with HOb cells [1] is listed as 114.81±0.18%. Moreover, in the data set on HOb cells [2], the “formation of mineralized bone nodules” value was 129.21±6.13%.

The record behind these values is patent US9044476B2, “Use of uraria in promoting osteogenesis or providing neuroprotection” (TAIPEI MEDICAL UNIVERSITY, priority 2013, dated 2015).
